Values quoted from earlier work in article PMC8838197, “Coumarin-Resveratrol-Inspired Hybrids as Monoamine Oxidase B Inhibitors: 3-Phenylcoumarin versus trans-6-Styrylcoumarin” (Molecules, 2022).
Several values for one entry are separate records, joined by “and”; a condition that tells them apart may be missing. Equal entries are not always repeated.

Tests used:
MAO-A = details: cited from earlier work; for pIC50 MAO-A: Table S8; for MAO-A pIC50: data set compounds
MAO-B = test system: MAO-B; set-up: pIC50 MAO-B: unit not given here; details: cited from earlier work; for pIC50 MAO-B: Table S8; for MAO-B pIC50: data set compounds

SMILES	pIC50 MAO-B (MAO-B)	other results
COc1cc(-c2cc3cc(C)cc(Br)c3oc2=O)cc(OC)c1OC [Compound 11]	5.311	pIC50 MAO-A (MAO-A): 4.506; MAO-A pIC50 (MAO-A): < 5.0
Cc1ccc(-c2cc3cc(O)ccc3oc2=O)cc1 [Compound 14]	7.173	pIC50 MAO-A (MAO-A): 4.604
Cc1ccc2oc(=O)c(-c3cccc(O)c3)cc2c1 [Compound 23]	6.187	pIC50 MAO-A (MAO-A): 4.455
Cc1ccc2oc(=O)c(-c3ccccc3O)cc2c1 [Compound 24]	6.921	pIC50 MAO-A (MAO-A): 4.666; MAO-B pIC50 (MAO-B): > 6.5 and < 6.5
COc1ccc(-c2cc3cccc(C)c3oc2=O)cc1 [Compound 37]	8.465	pIC50 MAO-A (MAO-A): 4.666; MAO-A pIC50 (MAO-A): < 5.0
Cc1ccc(C(=O)Nc2cc3cc(C)ccc3oc2=O)cc1 [Compound 41]	6.77	pIC50 MAO-A (MAO-A): 4.337
COc1ccc(-c2cc3cc([N+](=O)[O-])ccc3oc2=O)cc1 [Compound 54]	8.523	pIC50 MAO-A (MAO-A): 5.932
COc1ccc(-c2cc3cccc(OC)c3oc2=O)cc1 [Compound 55]	–	MAO-A pIC50 (MAO-A): < 5.0
O=c1oc2ccc(O)cc2cc1-c1ccccc1 [Compound 63]	5.47	pIC50 MAO-A (MAO-A): 4.524
O=c1oc2ccc(O)cc2cc1-c1ccc(Br)cc1 [Compound 68]	7.495	pIC50 MAO-A (MAO-A): 4.892
O=c1oc2ccc(OC3CCCC3)cc2cc1-c1cccc(Br)c1 [Compound 72]	5.747	pIC50 MAO-A (MAO-A): 4.354; MAO-A pIC50 (MAO-A): < 5.0
Cc1ccc2oc(=O)c(-c3ccc(N)cc3)cc2c1 [Compound 91]	8.387	MAO-B pIC50 (MAO-B): > 6.5
COc1cc(C(=O)Nc2c(O)c3ccccc3oc2=O)cc(OC)c1OC [Compound 92]	4.433	–
O=C(Nc1c(O)c2ccccc2oc1=O)c1ccc(Cl)c(Cl)c1 [Compound 93]	4.721	–
O=C(Nc1cc2ccccc2oc1=O)c1cccs1 [Compound 94]	5.644	–
O=C(Nc1c(O)c2ccccc2oc1=O)c1cccs1 [Compound 95]	4.81	–
O=C(Nc1cc2ccccc2oc1=O)c1cccnc1 [Compound 96]	4.676	–
O=C(Nc1c(O)c2ccccc2oc1=O)C1CCCCC1 [Compound 97]	4.648	–
Cc1ccc2oc(=O)c(C(=O)Nc3ccccc3C)cc2c1 [Compound 98]	7.928	–
Cc1cccc(NC(=O)c2cc3cc(C)ccc3oc2=O)c1 [Compound 99]	8.124	–
Cc1ccc(NC(=O)c2cc3cc(C)ccc3oc2=O)cc1 [Compound 100]	7.857	–
COc1ccccc1NC(=O)c1cc2cc(C)ccc2oc1=O [Compound 101]	6.794	–
COc1cccc(NC(=O)c2cc3cc(C)ccc3oc2=O)c1 [Compound 102]	7.996	–
COc1ccc(NC(=O)c2cc3cc(C)ccc3oc2=O)cc1 [Compound 103]	6.527	–
Cc1ccc2oc(=O)c(C(=O)Nc3ccccc3Br)cc2c1 [Compound 104]	7.87	–

SMILES	pIC50 MAO-B (MAO-B)	other results
Cc1ccc2oc(=O)c(C(=O)Nc3cccc(Br)c3)cc2c1 [Compound 105]	8.332	–
Cc1ccc2oc(=O)c(C(=O)Nc3ccc(Br)cc3)cc2c1 [Compound 106]	7.943	MAO-B pIC50 (MAO-B): > 6.5
Cc1ccc2oc(=O)c(C(=O)Nc3ccccc3O)cc2c1 [Compound 107]	7.738	–
Cc1ccc2oc(=O)c(C(=O)Nc3cccc(O)c3)cc2c1 [Compound 108]	7.343	–
Cc1ccc2oc(=O)c(C(=O)Nc3ccc(O)cc3)cc2c1 [Compound 109]	6.206	MAO-B pIC50 (MAO-B): < 6.5
Cc1ccc2oc(=O)c(C(=O)Nc3ccccc3)cc2c1 [Compound 110]	7.815	–
Cc1cccc(NC(=O)c2cc3cc(C)ccc3oc2=O)c1 [Compound 111]	8.124	–
Cc1ccc2oc(=O)c(C(=O)Nc3cccc(Cl)c3)cc2c1 [Compound 112]	8.295	–
Cc1ccc2oc(=O)c(C(=O)Nc3cccc(O)c3)cc2c1 [Compound 113]	7.343	–
Cc1ccc2oc(=O)c(C(=O)Nc3ccc(Cl)cc3)cc2c1 [Compound 114]	7.955	MAO-B pIC50 (MAO-B): > 6.5
Cc1ccc2oc(=O)c(C(=O)Nc3ccc(O)cc3)cc2c1 [Compound 115]	6.206	MAO-B pIC50 (MAO-B): < 6.5
COc1ccc2oc(=O)c(C(=O)Nc3ccccc3)cc2c1 [Compound 116]	8.225	–
COc1ccc2oc(=O)c(C(=O)Nc3cccc(C)c3)cc2c1 [Compound 117]	7.326	–
COc1ccc2oc(=O)c(C(=O)Nc3cccc(Cl)c3)cc2c1 [Compound 118]	8.044	–
COc1ccc2oc(=O)c(C(=O)Nc3cccc(O)c3)cc2c1 [Compound 119]	6.641	–
COc1ccc2oc(=O)c(C(=O)Nc3ccc(C)cc3)cc2c1 [Compound 120]	7.712	–
COc1ccc2oc(=O)c(C(=O)Nc3ccc(Cl)cc3)cc2c1 [Compound 121]	7.724	MAO-B pIC50 (MAO-B): > 6.5
Cc1ccc2occ(C(=O)Nc3ccccc3)c(=O)c2c1 [Compound 122]	7.671	–
Cc1cccc(NC(=O)c2coc3ccc(C)cc3c2=O)c1 [Compound 123]	7.767	–
Cc1ccc2occ(C(=O)Nc3cccc(Cl)c3)c(=O)c2c1 [Compound 124]	8.377	–
Cc1ccc2occ(C(=O)Nc3cccc(O)c3)c(=O)c2c1 [Compound 125]	7.107	–
Cc1ccc(NC(=O)c2coc3ccc(C)cc3c2=O)cc1 [Compound 126]	6.819	–
Cc1ccc2occ(C(=O)Nc3ccc(Cl)cc3)c(=O)c2c1 [Compound 127]	7.343	MAO-B pIC50 (MAO-B): > 6.5
Cc1ccc2occ(C(=O)Nc3ccc(O)cc3)c(=O)c2c1 [Compound 128]	6.29	MAO-B pIC50 (MAO-B): < 6.5
COc1ccc2occ(C(=O)Nc3ccccc3)c(=O)c2c1 [Compound 129]	7.379	–

SMILES	pIC50 MAO-B (MAO-B)	other results
COc1ccc2occ(C(=O)Nc3cccc(C)c3)c(=O)c2c1 [Compound 130]	7.662	–
COc1ccc2occ(C(=O)Nc3cccc(Cl)c3)c(=O)c2c1 [Compound 131]	8.405	–
COc1ccc2occ(C(=O)Nc3cccc(O)c3)c(=O)c2c1 [Compound 132]	6.945	–
COc1ccc2occ(C(=O)Nc3ccc(C)cc3)c(=O)c2c1 [Compound 133]	6.676	–
COc1ccc2occ(C(=O)Nc3ccc(Cl)cc3)c(=O)c2c1 [Compound 134]	7.987	MAO-B pIC50 (MAO-B): > 6.5
COc1ccc2occ(C(=O)Nc3ccc(O)cc3)c(=O)c2c1 [Compound 135]	6.171	MAO-B pIC50 (MAO-B): < 6.5
Cc1ccc2oc(=O)c(-c3ccc(O)c(O)c3)cc2c1 [Compound 136]	5.328	–
COc1cc(OC)cc(-c2cc3cccc(C)c3oc2=O)c1 [Compound 137]	8.187	MAO-B pIC50 (MAO-B): > 6.5
COc1cc(OC)c(-c2cc3cc(C)ccc3oc2=O)cc1Br [Compound 140]	6.879	MAO-B pIC50 (MAO-B): > 6.5
COc1cccc2cc(-c3cccc(C)c3)c(=O)oc12 [Compound 141]	7.092	MAO-B pIC50 (MAO-B): > 6.5
O=c1oc2c(O)cccc2cc1-c1ccsc1 [Compound 142]	–	pIC50 MAO-A (MAO-A): 4.754
O=c1oc2c(O)cccc2cc1-c1cc(Br)cs1 [Compound 145]	–	pIC50 MAO-A (MAO-A): 5.207
C#CCNc1cc2ccccc2oc1=O [Compound 148]	6.022	–
CC#CCNc1cc2ccccc2oc1=O [Compound 149]	4.922	–
CCC#CCNc1cc2ccccc2oc1=O [Compound 150]	5.963	–
CCC#CCNc1ccc2c(C)cc(=O)oc2c1 [Compound 151]	5.401	–
CCC#CCNc1ccc2c(C(F)(F)F)cc(=O)oc2c1 [Compound 152]	5.094	–
CC(=O)Nc1ccc2c(C)cc(=O)oc2c1 [Compound 153]	–	pIC50 MAO-A (MAO-A): 4.59
CCC(=O)Nc1ccc2c(C)cc(=O)oc2c1 [Compound 154]	–	pIC50 MAO-A (MAO-A): 4.015
Cc1cc(=O)oc2cc(NC(=O)CC(C)(C)C)ccc12 [Compound 157]	6.602	–
Cc1cc(=O)oc2cc(NC(=O)c3ccccc3)ccc12 [Compound 159]	6.444	–
Cc1ccc(C(=O)Nc2ccc3c(C)cc(=O)oc3c2)cc1 [Compound 160]	6.046	–
Cc1cc(=O)oc2cc(NC(=O)c3ccc(Cl)cc3)ccc12 [Compound 161]	6.509	–
Cc1cc(=O)oc2cc(NC(=O)c3cccs3)ccc12 [Compound 162]	5.799	–
